These results are taken from ChEMBL document CHEMBL1201862, “PubChem BioAssay data set” (2004).

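Test compounds were applied to cells in 96-well plates for 48 hours at 5 doses. Abbreviation: GI50, concentration required for 50% inhibition of growth.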 The source made the active and inactive calls. Rule as the data show it: active = GI50 up to about 1.1 µM and inactive = higher. Residues, ends and D or L forms follow the SMILES beside them.

Experiment in all cases: DTP human tumour cell line panel, 48 h
Assay [1] concerns HOP-62.
Assay [2] deals with NCI/ADR-RES.
Assay [3] has as its system U-251.
Assay [4] deals with A498.
For assay [5], the system named is MDA-MB-435.
The test system of assay [6] is TK-10.
Assay [7] concerns SK-OV-3.
For assay [8], the system named is MOLT-4.
For assay [9], the system named is SR.
Assay [10] has as its system RXF 393.
Assay [11] deals with SN12C.
Assay [12] deals with NCI-H23.
For assay [13], the system named is SF-268.
For assay [14], the system named is IGROV-1.
The test system of assay [15] is HOP-92.
The test system of assay [16] is LOX IMVI.
Assay [17] relates to SK-MEL-28.
In assay [18] the test system is SF-295.
Assay [19] has as its system PC-3.
The subject of assay [20] is RPMI-8226.

For the molecule `CCOC(=O)CCC(NC(=O)c1ccc(CNc2nc3cc(N)cc(N)c3nc2-c2ccccc2)cc1)C(=O)OCC` (stereo not drawn), the GI50 in assay [1] was > 100 µM (inactive); in assay [2], > 100 µM (inactive); in assay [3] it was > 100 µM (inactive); in assay [4], > 100 µM (inactive); in assay [5], 43.1 µM (inactive); in assay [6] it was > 100 µM (inactive). Also, the GI50 in assay [7] was > 100 µM (inactive); in assay [8], 1.45 µM (inactive); in assay [9] it was 3.64 µM (inactive); in assay [10], > 58.9 µM (inactive); in assay [11], > 61.5 µM (inactive); in assay [12], > 67.6 µM (inactive). For the same molecule, the GI50 is > 100 µM (inactive) in assay [13]; > 87.1 µM (inactive) in [14]; 39.9 µM (inactive) in assay [15]; 99.3 µM (inactive) in assay [16]; 28.2 µM (inactive) in assay [17]; > 100 µM (inactive) in assay [18]. Further, the GI50 in [19] was > 100 µM (inactive).
In the case of `CCOC(=O)c1nc2ccccc2nc1Nc1ccc(OC)cc1`, the GI50 was 15 µM (inactive) in [1]; 34.8 µM (inactive) in assay [2]; 35.1 µM (inactive) in assay [3]; 18.6 µM (inactive) in assay [4]; > 100 µM (inactive) in [5]; 25.7 µM (inactive) in [6]. The GI50 in [8] is > 100 µM (inactive); in [9] it was > 100 µM (inactive); in assay [10], 17.5 µM (inactive); in [11], 14.8 µM (inactive); in assay [12], 54.2 µM (inactive); in assay [13], 51.6 µM (inactive). In addition, the GI50 in assay [14] is 50.6 µM (inactive); in assay [15], 22.5 µM (inactive); in assay [16], > 100 µM (inactive); in [17] it was 54.7 µM (inactive); in assay [18], 19.5 µM (inactive); in [19] it was 31.4 µM (inactive). Further, in assay [20], the GI50 is > 100 µM (inactive).
Regarding `C=C1C(=O)OC2CC3(C)CCCC(C)C3=CC12` (stereo not drawn), the GI50 was 17.6 µM (inactive) in assay [2]; 7 µM (inactive) in assay [3]; 3.72 µM (inactive) in assay [4]; 2.94 µM (inactive) in assay [5]; 2.46 µM (inactive) in [6]; 20.7 µM (inactive) in assay [7]. Also, the GI50 in assay [8] was 2.56 µM (inactive); in assay [9] it was 2.14 µM (inactive); in assay [11], 3.3 µM (inactive); in [12] it was 6.04 µM (inactive); in assay [13] it was 6.92 µM (inactive); in [14], 10.1 µM (inactive). Further, the GI50 in assay [15] was 2.64 µM (inactive); in assay [16], 1.57 µM (inactive); in assay [17], 2.65 µM (inactive); in [18] it was 13.1 µM (inactive); in [19] it was 14.8 µM (inactive).
Take `CC(CC(C)[C@H]1CCC2[C@H]3C(CC(=O)[C@@]21C)[C@@]1(C)CCC(O)C[C@H]1C[C@@H]3O)C(=O)O` (stereo partly drawn): the GI50 in assay [1], in assay [2], in assay [3], in [4], in [5] and in assay [6] was > 100 µM (inactive) in each case. For the same molecule, the GI50 in assay [8] was 46.2 µM (inactive); in [9], 18.3 µM (inactive); in assay [10], > 100 µM (inactive); in assay [11], > 100 µM (inactive); in [12], > 100 µM (inactive); in assay [13] it was > 100 µM (inactive). Also, the GI50 in assay [14] was > 100 µM (inactive); in assay [15] it was > 100 µM (inactive); in assay [16] it was > 100 µM (inactive); in assay [17] it was > 100 µM (inactive); in assay [19] it was > 100 µM (inactive); in [20], 41.3 µM (inactive).
As for `COc1cc2c3cc1Oc1c(OC)c(OC)cc4c1C(Cc1ccc(O)c(c1)Oc1ccc(cc1)CC3N(C)CC2)CN(C)C4` (stereo not drawn), the GI50 in assay [1] is 20 µM (inactive); in assay [2] it was 19.3 µM (inactive); in assay [3], 12.3 µM (inactive); in assay [4] it was 16.9 µM (inactive); in [5], 11.5 µM (inactive); in [6], 16.1 µM (inactive). In addition, the GI50 is 23.4 µM (inactive) in assay [7]; 7.31 µM (inactive) in assay [8]; 6.14 µM (inactive) in [9]; 10.6 µM (inactive) in assay [10]; 15.8 µM (inactive) in assay [11]; 16.9 µM (inactive) in [12]. The GI50 in assay [13] is 20.4 µM (inactive); in assay [14], 20.5 µM (inactive); in assay [15], 16 µM (inactive); in [17] it was 16.8 µM (inactive); in [18], 17.9 µM (inactive); in assay [19] it was 21.1 µM (inactive). Besides, the GI50 in assay [20] was 13 µM (inactive).
For the molecule `O=C1CNNC(CSc2nc3ccc(I)cc3c(=O)n2Cc2ccccc2)=N1`, the GI50 is 32.3 µM (inactive) in assay [1]; 26.8 µM (inactive) in assay [2]; 21.4 µM (inactive) in assay [3]; 27.8 µM (inactive) in [4]; 32.6 µM (inactive) in assay [5]; 30.1 µM (inactive) in [6]. Besides, the GI50 in assay [7] was 33.3 µM (inactive); in assay [8], 31.9 µM (inactive); in assay [9], 17.9 µM (inactive); in [11] it was 17.1 µM (inactive); in assay [12], 31.6 µM (inactive); in assay [13] it was 24.7 µM (inactive). For the same molecule, the GI50 in assay [14] is 18 µM (inactive); in [15], 22.7 µM (inactive); in [16], 18.2 µM (inactive); in assay [17] it was 20.9 µM (inactive); in assay [18], 20.4 µM (inactive); in assay [19], 24.5 µM (inactive). For the same molecule, the GI50 in assay [20] was 22.6 µM (inactive).
As to `CC(=O)OCC1OC(n2c(-c3ccccc3)c(C(C)=O)c(-c3ccc(Cl)cc3)c(C#N)c2=S)C(OC(C)=O)C(OC(C)=O)C1OC(C)=O` (stereo not drawn), the GI50 in [1], in assay [2], in assay [3], in assay [4], in assay [5] and in assay [6] was > 100 µM (inactive) in each case. The GI50 in assay [7] is > 100 µM (inactive); in assay [8], > 100 µM (inactive); in assay [9], > 100 µM (inactive); in assay [10], 65.5 µM (inactive); in assay [11], > 100 µM (inactive); in [12] it was > 100 µM (inactive). In addition, the GI50 in assay [13] was 50.4 µM (inactive); in [14] it was > 100 µM (inactive); in assay [15], 0.601 µM (active); in assay [16], > 100 µM (inactive); in [17], > 100 µM (inactive); in assay [18] it was > 100 µM (inactive). For the same molecule, the GI50 in [19] is 1.93 µM (inactive).
On to `CCOC1OC(COC(=O)C(C)(C)C)C(O)CC1n1cc(C)c(=O)[nH]c1=O` (stereo not drawn), for which the GI50 in assay [2], in [3], in assay [4], in [5], in assay [6] and in assay [9] was > 100 µM (inactive) in each case. For the same molecule, the GI50 in assay [10], in assay [11], in assay [12], in assay [13], in assay [14] and in assay [15] was > 100 µM (inactive) in each case. Besides, the GI50 in assay [16], in assay [17], in [18], in assay [19] and in [20] was > 100 µM (inactive) in each case.
For `CCOC(=O)C#Cc1ccccc1`, the GI50 is 17.3 µM (inactive) in [1]; 4.82 µM (inactive) in assay [2]; 11.1 µM (inactive) in assay [3]; 21.3 µM (inactive) in assay [4]; 7.18 µM (inactive) in assay [5]; 21.6 µM (inactive) in assay [6]. Also, the GI50 in assay [7] is 26.6 µM (inactive); in [8], 2.9 µM (inactive); in assay [9] it was 2.05 µM (inactive); in assay [11] it was 5.55 µM (inactive); in [12], 7.26 µM (inactive); in assay [15], 18.3 µM (inactive). The GI50 is 2.96 µM (inactive) in assay [16]; 16.8 µM (inactive) in assay [17]; 13.5 µM (inactive) in assay [18]; 8.95 µM (inactive) in [19]; 12.2 µM (inactive) in assay [20].
`CCC(C)C(NC(=O)C1CCCN1)C(=O)NC(C(=O)NCC(=O)NC(CC(N)=O)C(=O)NC(CC(C)C)C(=O)NC(CC(C)C)C(=O)NC(CCCCN)C(N)=O)C(C)C` (stereo not drawn) (H-PIVGNLLK-NH2; configuration not given here): the GI50 in assay [1], in assay [2], in assay [3], in assay [4], in assay [5] and in [6] was > 75 µM (inactive) each time. Moreover, the GI50 in [7], in assay [8], in [9], in assay [11], in [12] and in [13] was > 75 µM (inactive) throughout. For the same molecule, the GI50 in [14], in [15], in assay [16], in assay [17], in assay [18] and in assay [19] was > 75 µM (inactive) throughout. For the same molecule, the GI50 in assay [20] was > 75 µM (inactive).
